{"source": "PubChem BioAssay AID1584", "about": "(NINDS Approved Drug Screening Program, 2009)", "note": "Results filed as inconclusive are left out."}
{"target": "Huntingtin (Homo sapiens) (UniProt P42858)", "sequence (P42858 whole entry, looked up)": "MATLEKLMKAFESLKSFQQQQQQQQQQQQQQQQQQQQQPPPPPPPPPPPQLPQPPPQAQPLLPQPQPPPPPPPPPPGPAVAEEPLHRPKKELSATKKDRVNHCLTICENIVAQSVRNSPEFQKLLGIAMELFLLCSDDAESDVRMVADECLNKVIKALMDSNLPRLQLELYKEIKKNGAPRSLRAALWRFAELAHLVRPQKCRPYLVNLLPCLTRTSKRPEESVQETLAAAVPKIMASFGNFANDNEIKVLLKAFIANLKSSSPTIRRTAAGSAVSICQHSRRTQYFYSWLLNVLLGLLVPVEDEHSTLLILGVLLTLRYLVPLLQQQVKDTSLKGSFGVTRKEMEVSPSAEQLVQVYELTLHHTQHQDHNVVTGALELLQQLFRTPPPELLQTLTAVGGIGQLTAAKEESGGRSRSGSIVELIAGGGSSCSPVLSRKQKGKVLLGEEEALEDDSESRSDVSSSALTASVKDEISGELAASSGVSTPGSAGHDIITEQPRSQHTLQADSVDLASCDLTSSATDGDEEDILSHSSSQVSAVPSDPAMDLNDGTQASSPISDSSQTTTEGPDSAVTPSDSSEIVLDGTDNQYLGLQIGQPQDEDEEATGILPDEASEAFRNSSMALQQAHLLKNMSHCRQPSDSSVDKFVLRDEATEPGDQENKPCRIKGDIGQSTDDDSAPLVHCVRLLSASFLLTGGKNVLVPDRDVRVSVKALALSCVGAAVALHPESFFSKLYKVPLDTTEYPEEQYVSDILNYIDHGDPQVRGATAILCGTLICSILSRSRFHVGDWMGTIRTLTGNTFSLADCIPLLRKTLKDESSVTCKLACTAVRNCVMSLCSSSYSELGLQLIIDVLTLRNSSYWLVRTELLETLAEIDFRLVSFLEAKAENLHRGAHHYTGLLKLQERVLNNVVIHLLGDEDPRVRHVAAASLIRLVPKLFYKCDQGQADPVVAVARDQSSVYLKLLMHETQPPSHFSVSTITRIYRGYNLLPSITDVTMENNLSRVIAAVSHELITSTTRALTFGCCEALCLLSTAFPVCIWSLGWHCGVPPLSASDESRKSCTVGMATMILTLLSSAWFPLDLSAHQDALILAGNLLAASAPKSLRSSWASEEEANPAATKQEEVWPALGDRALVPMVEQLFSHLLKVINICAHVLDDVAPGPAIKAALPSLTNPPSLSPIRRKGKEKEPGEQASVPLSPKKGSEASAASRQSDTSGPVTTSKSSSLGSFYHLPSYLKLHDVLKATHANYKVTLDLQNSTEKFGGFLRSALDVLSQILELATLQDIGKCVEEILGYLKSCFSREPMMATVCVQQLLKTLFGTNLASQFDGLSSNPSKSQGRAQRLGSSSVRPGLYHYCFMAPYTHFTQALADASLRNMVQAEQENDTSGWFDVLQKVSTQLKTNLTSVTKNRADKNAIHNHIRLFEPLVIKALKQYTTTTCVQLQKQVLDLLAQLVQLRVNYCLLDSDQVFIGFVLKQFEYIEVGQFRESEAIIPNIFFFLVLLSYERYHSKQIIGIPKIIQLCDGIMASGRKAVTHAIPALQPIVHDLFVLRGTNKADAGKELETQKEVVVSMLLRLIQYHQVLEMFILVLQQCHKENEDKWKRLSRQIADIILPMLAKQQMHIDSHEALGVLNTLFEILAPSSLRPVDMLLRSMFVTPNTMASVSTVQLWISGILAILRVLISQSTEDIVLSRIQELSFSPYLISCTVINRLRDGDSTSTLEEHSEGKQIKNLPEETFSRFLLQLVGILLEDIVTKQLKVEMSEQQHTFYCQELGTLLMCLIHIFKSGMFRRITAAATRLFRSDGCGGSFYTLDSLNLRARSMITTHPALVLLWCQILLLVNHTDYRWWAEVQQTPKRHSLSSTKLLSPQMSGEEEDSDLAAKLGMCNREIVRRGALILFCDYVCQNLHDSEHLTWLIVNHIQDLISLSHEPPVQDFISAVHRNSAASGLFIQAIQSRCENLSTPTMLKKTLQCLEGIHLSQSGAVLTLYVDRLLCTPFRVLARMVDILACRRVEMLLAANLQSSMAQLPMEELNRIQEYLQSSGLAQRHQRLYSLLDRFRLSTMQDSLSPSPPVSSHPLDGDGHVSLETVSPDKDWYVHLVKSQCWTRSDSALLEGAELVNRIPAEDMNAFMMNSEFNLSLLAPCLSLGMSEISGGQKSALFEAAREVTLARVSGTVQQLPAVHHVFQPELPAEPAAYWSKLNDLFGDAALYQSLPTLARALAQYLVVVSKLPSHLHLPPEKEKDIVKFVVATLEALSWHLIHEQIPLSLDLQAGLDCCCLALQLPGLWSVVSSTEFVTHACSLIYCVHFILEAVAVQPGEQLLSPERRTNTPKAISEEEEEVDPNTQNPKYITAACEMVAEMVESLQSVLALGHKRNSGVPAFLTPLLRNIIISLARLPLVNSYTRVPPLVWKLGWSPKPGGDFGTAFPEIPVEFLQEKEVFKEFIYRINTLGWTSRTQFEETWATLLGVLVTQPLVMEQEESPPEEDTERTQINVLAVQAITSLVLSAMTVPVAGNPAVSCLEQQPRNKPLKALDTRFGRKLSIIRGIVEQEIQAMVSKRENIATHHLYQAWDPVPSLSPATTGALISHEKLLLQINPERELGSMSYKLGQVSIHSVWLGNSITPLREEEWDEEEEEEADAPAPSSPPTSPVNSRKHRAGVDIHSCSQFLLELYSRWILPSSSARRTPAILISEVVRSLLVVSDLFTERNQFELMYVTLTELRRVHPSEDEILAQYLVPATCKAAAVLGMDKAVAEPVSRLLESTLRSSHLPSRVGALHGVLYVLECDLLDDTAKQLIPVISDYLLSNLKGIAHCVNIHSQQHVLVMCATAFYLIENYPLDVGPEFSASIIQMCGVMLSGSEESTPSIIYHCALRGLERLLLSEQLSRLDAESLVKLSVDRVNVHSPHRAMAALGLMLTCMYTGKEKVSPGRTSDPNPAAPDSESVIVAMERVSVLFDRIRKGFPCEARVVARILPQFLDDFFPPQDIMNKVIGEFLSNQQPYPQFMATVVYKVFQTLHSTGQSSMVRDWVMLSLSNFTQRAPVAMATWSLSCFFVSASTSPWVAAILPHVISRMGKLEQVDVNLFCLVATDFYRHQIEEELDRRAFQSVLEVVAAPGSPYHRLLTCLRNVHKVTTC", "experiment": "mutant huntingtin aggregation blockers – QA1, dose response (AID 1584)", "settings": "in vitro mutant huntingtin aggregation assay", "units": {"EC50": "µM"}}
{"smiles": "CC(C)=CCCC1(C)C=Cc2c(O)c3c(c(CC=C(C)C)c2O1)OC12C(=CC4CC1C(C)(C)OC2(C/C=C(/C)C(=O)O)C4=O)C3=O", "note": "(stereo not given)", "EC50": 0.87}
{"smiles": "O=C1C=CC(=O)c2c(O)cccc21", "EC50": 2.67}
{"smiles": "O=c1c(O)c(-c2ccc(O)cc2O)oc2cc(O)cc(O)c12", "EC50": 17}
{"smiles": "C[C@@]1(C(=O)O)CC[C@]2(C)CC[C@]3(C)C4=CC=C5C=C(O)C(=O)C=C5[C@]4(C)CC[C@@]3(C)[C@@H]2C1", "EC50": 3.55}
{"smiles": "C=C1c2c(Cl)ccc(O)c2C(O)=C2C(=O)[C@]3(O)C(O)=C(C(N)=O)C(=O)[C@@H](N(C)C)[C@@H]3[C@@H](O)[C@H]12", "EC50": 14.8}
{"smiles": "C=Cc1c(C)c2cc3[nH]c(cc4nc(cc5nc(cc1[nH]2)C(C)=C5CCC(=O)O)C(CCC(=O)O)=C4C)c(C)c3C=C", "EC50": 19.7}
{"smiles": "O=C1c2c(O)cccc2Cc2cccc(O)c21", "EC50": 10.5}
{"smiles": "C[n+]1cc2c3c(ccc2c2ccc4cc5c(cc4c21)OCO5)OCO3", "EC50": 5.7}
{"smiles": "Cc1cc(/C=C/c2ccc3cc(N(C)C)ccc3[n+]2C)c(C)n1-c1ccccc1", "EC50": 21.7}
{"smiles": "Cc1cc2c(C(C)C)c(O)c(O)c(C=O)c2c(O)c1-c1c(C)cc2c(C(C)C)c(O)c(O)c(C=O)c2c1O", "EC50": 0.65}
